A melting point compilation (Tetko et al.; mined from patent text by program, amines drawn as free bases though some values may be those of a salt)

melting point | Compound
218 to 220 °C | COC(=O)C1=C(O)c2ccc3ccccc3c2S(=O)(=O)N1
156 to 157 °C | O=C1c2c(O)cccc2C(Sc2ccccc2)c2cccc(O)c21
295 to 298 °C | COc1ccc(-c2cc3ncccc3c(O)n2)cc1
219 to 220 °C | CS(=O)(=O)c1ccc(C(=O)Nc2ccc(-n3nc(C(F)(F)F)cc3C(F)(F)F)cc2)c(Cl)c1
163 to 165 °C | CON1C(C)(C)CC(CCCCNc2nc(N)nc(NCCCCC3CC(C)(C)N(OC)C(C)(C)C3)n2)CC1(C)C
70 °C | CCCCC(=O)C(Cc1ccc(C#N)cc1)c1ccccc1 (stereo unspecified)
55 °C | CC#CCOc1ccc(S(=O)C(C(=O)NO)c2ccccc2)cc1 (stereo unspecified)
214 to 216 °C | CC1(C)CC(C)(c2ccc(Oc3ccc([N+](=O)[O-])cc3)cc2)c2cc(Oc3ccc([N+](=O)[O-])cc3)ccc21 (stereo unspecified)
197 to 201 °C | CC(=O)OCC(=O)C1(O)C(C)CC2C3CCC4=CC(=O)CCC4(C)C3=CCC21C (stereo unspecified)
208 °C | O=C(N[C@H]1CC[C@H](CCN2CCC(c3ccc(F)c4occc34)CC2)CC1)C1CCOCC1
243 to 245 °C | O=C(Nc1ccc(S(=O)(=O)N2CCOCC2)cc1)c1cc(Cl)ccc1[N+](=O)[O-]
222 °C | Cc1cc2c(-c3ccccc3)c(CC(=O)NCc3ccccc3)n(C)c(=O)c2cc1C
229 to 230 °C | CN(C(=O)c1ccc(Cn2cnc3ncnc-3c2)cc1)C1CCCCC1
> 300 °C | COc1cc(OC)nc(-n2c(N)nc3cc(C)ccc32)n1
174 °C | COc1cc(-c2nc3ccccc3n2Cc2ccccc2Cl)cc(OC)c1OC
194 to 195 °C | CC(C)(C)OC(=O)c1ccc(NC2CCc3cc(NC(=O)COCc4ccccc4)c(C#N)cc32)cc1 (stereo unspecified)
98 to 99 °C | C=CCn1c(C)c(C)c2cnnc(OCc3ccc(Cl)cc3Cl)c21
112 °C | CCCCS(=O)Cc1cc(C)c(CCl)cc1C (stereo unspecified)
227 to 228 °C | CC1(C)OC(=O)Nc2ccc(-c3cc(C#N)cc(OC(F)(F)F)c3)cc21
130 to 131 °C | COC(=O)c1ccc2cc(CCCCc3cc4ccc(C(=O)OC)cc4o3)oc2c1
142 to 144 °C | CCOC(=O)c1cnn(-c2ccc(Oc3ccc(C)cc3O)cc2)c1N
118 to 120 °C | OC1(c2ccccc2Cc2ccccc2)CCN(CC2CC2)C1 (stereo unspecified)
163 to 165 °C | O=C1OCC(CC(F)(F)F)N1c1nc(-c2ccc(Br)cc2)cs1 (stereo unspecified)
113 to 114 °C | CCOC(=O)c1c(-c2ccc(F)cc2)oc(-c2ccc(F)cc2)cc1=O

melting point | Compound
149 to 151 °C | CN1CC(=O)N(c2cccnc2)C1=S
84 to 85 °C | COc1ccc(C(=O)c2c(Cc3ccccc3)oc3ccccc23)cc1
130 to 135 °C | OC(c1ccccc1)c1cccnn1 (stereo unspecified)
117 to 120 °C | CC(=O)Oc1ccc(CI)cc1C(OC(C)=O)OC(C)=O
101 to 103 °C | Fc1ccc(CNc2nc(OCc3ccccc3)nc(OCC(F)(F)F)n2)cc1
134 to 136 °C | C[Si](C)(C)OC(Cn1ccnc1)(Cn1ccnc1)c1ccc(F)cc1F
190 to 192 °C | Cc1nc(-n2cnn(Cc3ccc(F)cc3)c2=O)sc1C#N
119 to 122 °C | O=Cc1cccn1-c1ccccc1[N+](=O)[O-]
121 °C | Nc1ccccc1N1CCN(CCCCn2c(=O)[nH]c(=O)c3ccccc32)CC1
194 to 195 °C | CCCSc1ncc(CO)n1Cc1ccc(-c2ccccc2C(=O)O)cc1
129 to 134 °C | Cc1ccc(S(=O)(=O)NC(=N)CCN2CCOC2=O)cc1
55 to 56 °C | COC(OC)c1cccc(NCc2ccccc2)c1
133 °C | Cc1cc(Cl)nc(C#N)c1
114 °C | COc1ccc(CCN(C)CCCc2ccc(NC(=O)c3cccc4c(=O)c5ccccc5[nH]c34)cc2)cc1OC
73 to 74 °C | COc1ccc2c(c1)N(CC#N)CCO2
61 to 62.5 °C | CCC(CC)Nc1c([N+](=O)[O-])cc(C)c(Cl)c1[N+](=O)[O-]
154 °C | CCCCNC(=S)c1ccc2c(c1)N(C(C)CN(C)C)c1ccccc1S2 (racemic)
246 °C | Cc1ccc2c(c1)NC(=S)C2=O
298 to 302 °C | Cc1[nH]c(C)c(-c2ccc(Oc3ccc(OC(F)(F)F)cc3)cc2)c(=O)c1Cl
62 to 67 °C | CCCCCCCCCCCCCCCCC(CO)C(=O)O (stereo unspecified)
173 to 174 °C | CCOC(=O)c1cc2cc(-c3ccccc3)ccc2[nH]1
131 °C | C=CCOc1ccc2c(c1)c(C)c(CCC(=O)O)n2Cc1ccc(Cl)cc1
158 to 159 °C | O=C(/C=C/C=C(c1cccc([N+](=O)[O-])c1)c1cccc([N+](=O)[O-])c1)NCCCCc1cccnc1
55.9 °C | CC(C)[C@@H]1C[C@@H](CO)NC1=O

melting point | Compound
110 to 111 °C | CN(OCc1ccccc1)C(=O)Nc1cccc(S(C)(=O)=O)c1
107 to 113 °C | CNCC1(C)Cc2c(C)c(N3CCN(c4ccc(OC)cc4)CC3)c(C)c(C)c2O1 (stereo unspecified)
187 to 188 °C | CCCCc1nc2c(N)nc3cc(C)ccc3c2o1
153 to 155 °C | COC(=O)C(=NOCF)c1ccccc1Oc1ncnc(Oc2ccccc2Cl)c1F
137 °C | O=P(Oc1ccc(-c2ccccc2)cc1)(Oc1ccc(-c2ccccc2)cc1)Oc1ccc(-c2ccccc2)cc1
104 to 105 °C | OCc1cnoc1-c1ccc(Br)cc1
114 to 115 °C | O=S(=O)(Nc1cccc(CCOCc2ccc(-c3ccc(OC(F)(F)F)cc3)cc2F)c1)C(F)(F)F
100 to 101 °C | O=c1c(C(F)(F)F)cn(Cc2ccccc2)c(=O)n1CCCCl
199 °C | Cc1cc2c3c(c1)[nH]c(=O)n3CC(C)NC2 (stereo unspecified)
119 to 122 °C | CC(C)c1nc(-c2ccccc2)nc(-c2ccc(F)cc2)c1C=CI
114 °C | Clc1ccc2[nH]c3c(c2c1)CCN1CCCC=C31
103 to 105 °C | Cc1nc2nc(SCc3ccccc3)nn2c(Cl)c1Cl
211 °C | CC(=O)Nc1nc(C)c(S(=O)(=O)NCCO)s1
109 to 110 °C | Cc1nc(-c2ccccc2)c(CC(C)C(=O)O)o1 (stereo unspecified)
182 to 184 °C | O=C(NCCNCCNC(=O)c1cccc2cc3ccccc3nc12)c1cccc2cc3ccccc3nc12
114 to 118 °C | CN1C(=O)N(CC(COc2ccc(-c3ccc(OC(F)(F)F)cc3)cc2)N(O)C=O)C(=O)C1(C)C (stereo unspecified)
214 °C | Cc1c(-c2ccc(N3CCOC3=O)cc2)nc2n1CCc1ccccc1C2OC1CCN(C)CC1 (stereo unspecified)
309 to 312 °C | O=C1Cc2cc(C3=NNC(=O)C4CCC34)ccc2N1 (stereo unspecified)
186 to 188 °C | N#Cc1c2c(c3c(c1N1CCCCC1)Cc1ccccc1-3)Cc1ccccc1-2
190 °C | COn1c(Br)c(Br)c(C#N)c1-c1ccc(Cl)cc1
85 to 87 °C | CCCCOC(=O)C(N)c1ccc(OCC(O)CNC(C)C)nc1 (stereo unspecified)
106 °C | CC(C)CCOc1ccc(S(=O)(=O)C2(C(=O)NO)CCN(Cc3ccccc3)CC2)cc1
128 to 130 °C | CCCN(CCC)Cc1nc(-c2ncn3c2CN(C)C(=O)c2sccc2-3)no1
144 to 145 °C | CN(C)NC(=O)c1c([Si](C)(C)C)ccc(Cl)c1Cl

melting point | Compound
152 to 153 °C | Clc1cc(Cl)n2c(-c3cccs3)ncc2n1
337 to 338 °C | Nc1c(-c2ccccc2)c(=O)[nH]c2cc(Cl)ccc12
260 to 262 °C | Cc1c(C(=O)O)sc2ccc(CO)cc12
110 to 112 °C | CCN(C(=O)OC(C)(C)C)C1CC=C(c2c[nH]c3cc(NC(=N)c4cccs4)ccc23)CC1 (stereo unspecified)
295 to 298 °C | Cc1n[nH]c(-c2ccc(F)cc2)c1-c1ccc2c(c1)NC(=O)CO2
96 to 98 °C | Oc1cccc(C2CCCN2Cc2ccccn2)c1 (stereo unspecified)
75 to 80 °C | CC(=O)OC1CSC(Oc2cc(C)c(-c3cccnc3)c(C)c2)C(OC(C)=O)C1OC(C)=O (stereo unspecified)
96 to 97 °C | Cc1cc([N+](=O)[O-])c(NC(C)C)c([N+](=O)[O-])c1NC(C)C
162 to 165 °C | CC(=O)Nc1ccc(O)c(C(=O)C=Cc2ccccc2)c1
156 to 157 °C | COCn1c(-c2ncc(CO)s2)cc2cccc(N(C)S(=O)(=O)c3cccs3)c21
49 to 52 °C | CC1(C)Cc2c(C(=O)N3CCCC3)sc(Sc3ccccc3)c2-c2oncc21
200 °C | CS(=O)(=O)c1cc(C(=O)O)c(Cl)cc1Oc1ccccc1
138 °C | CCCCCCCCCCCCCCCCCCC(=O)Nc1ccc(O)cc1
80 to 81 °C | O=C(COc1ccccc1)N[C@@H](Cc1ccccc1)C(=O)CSCc1ccsc1
132 °C | Cc1nn(C)c(C)c1-c1ccc(OC2SCC(O)C(O)C2O)cn1 (stereo unspecified)
147 to 148 °C | c1cc(N2CCCC2)ccc1CC12CC3CC(CC(C3)C1)C2
186 to 187 °C | COc1ccc(NC(=O)c2cc(-c3ccc(F)cc3F)ccc2O)cc1OC
229 to 230 °C | Cc1oc(-c2ccccc2)nc1COc1ccc(C(=O)c2ccc(O)cc2OCC(=O)O)cc1
160 °C | CC(=O)Nc1cccc(C=O)c1C
128 to 130 °C | COc1ccc(S(=O)(=O)N2Cc3ccccc3N(C(=O)c3cccc(C(F)(F)F)c3)CC2C(=O)NO)cc1 (stereo unspecified)
115 to 122 °C | Cc1cc(C(F)(F)F)nn1CC(=O)N1CCC(c2nc(C3=NOC(c4ccccc4Cl)C3)cs2)CC1 (stereo unspecified)
82 to 84 °C | CCC(O)(c1ccc(-c2ccccc2)cc1)C1CC=CC1 (stereo unspecified)

Compound | melting point
COC(=O)c1cc2cc(C[C@@H](C)NC[C@H](O)c3cccc(Cl)c3)ccc2n1CC1CC1 | 135 to 137 °C
CCC12CCC3C4CCC(=O)C=C4CCC3C1CCC2OC(=O)CCc1ccccc1 (stereo unspecified) | 135 to 140 °C
CCCCN1C(=O)CC(=O)N(c2ccccc2)c2cc(Cl)ccc21 | 159 to 161 °C
COC1CCC2C3CCC4CC(=NO)C(C)CC4(C)C3CCC12C (stereo unspecified) | 203 to 211 °C
CN(C)C1CCc2[nH]c3ccc(O)cc3c2C1 (stereo unspecified) | 202 to 204 °C
COc1cc(CC#N)c(CCN)cc1OC | 78 °C
CCCCCCC(C)(C)c1cc(O)c2c(c1)OCCC1=C2CC(C)CC1 (stereo unspecified) | 134 to 136 °C
